The source of these data is patent US6372297B1, “Wood preservative oxathiazines” (Uniroyal Chemical Company, Inc., priority 1993, dated 2002).

Assay [1] concerns blue-stain fungi and molds. Kind of assay: Activity against blue-stain fungi and molds on a stick test on vermiculite (paint film). The conditions noted are these: 12 weeks on vermiculite; for Surface score of wooden sticks treated with paint formulation, R rubra (y): R rubra (yeast). More on the design: key to Surface score of wooden sticks treated with paint formulation, C. cladosporioides / Surface score of wooden sticks treated with paint formulation, P. purpurogenum / Surface score of wooden sticks treated with paint formulation, P. violacea / Surface score of wooden sticks treated with paint formulation, R rubra (y) / Surface score of wooden sticks treated with paint formulation, S. chartarum / Surface score of wooden sticks treated with paint formulation, A. versicolor / Surface score of wooden sticks treated with paint formulation, A. pullulans: 0: No growth; Trace of growth of up to 1% coverage of the test inoculated area; 2: Growth covering between 1 and 10% of the inoculated test area; Growth covering between 10 and 30% of the inoculated test area; 4: Growth covering between 30 and 70% of the inoculated test area; 5: Growth covering more than 70t of the inoculated test area. The method, then:
Beech sticks (73×18×2 mm) Fagus sylvatica were painted, allowed to dry, and sterilized by γ-radiation (1.2 mRad). […] The coated sticks prepared above were then dipped in a spore suspension of pure culture of each fungus. Seven sticks each were placed in autoclaved Petri dishes (200 mm in diameter, 30 mm in height) containing 300 ml of vermiculite and 120 ml of water, and incubated for 12 weeks. The surfaces of the sticks were then examined for the growth of fungus and were evaluated according to the following scoring system: 0: No growth 1: […] 2: […] 3: […] 4. […] 5. Growth covering more than 70t of the inoculated test area.

For assay [2], the system named is mixed spore suspension of blue-stain fungus and molds. The experiment in a line: Activity against blue-stain fungi and molds in a mold cabinet test (BS3900: Part G6). Further details: key: 0: No growth; Trace of growth of up to 1% coverage of the test inoculated area; 2: Growth covering between 1 and 10% of the inoculated test area; Growth covering between 10 and 30% of the inoculated test area; 4: Growth covering between 30 and 70% of the inoculated test area; 5: Growth covering more than 70t of the inoculated test area. The method, then:
Using the methods described in BS3900: Part G6: 1989, British Standard Methods of test for paints, “Assessment of resistance to fungal growth”, representative compounds of this invention were tested for activity against blue-stain fungus and molds in a mold cabinet test. In brief, sticks of Scots pine (Pinus sylvestris) measuring 75×100×10 mm, were painted, allowed to dry, and sterilized by […] (1.2 mRad). […] The sticks were then with each solution. The inoculation consisted of dipping the sticks in a mixed spore suspension, then placing them in a mold chamber and incubating them for 12 weeks. The surfaces were evaluated according the following score system: 0: No growth 1: […] 2: […] 3: […] 4. […] 5. Growth covering more than 70% of the inoculated test area.

Assay [3] has as its system mixed spore suspension: Aureobasidium pullulans, Aspergillus amstelodami, Ceratocystis pilifera, Cladosporium sp., Penicillium sp., Sclerophomas entoxylina …. Kind of assay: Control of molds and sapstain fungi in mini-board test. More on the design: key to Surface score of treated mini-boards, 3 week incubation, 1500 ppm / Surface score of treated mini-boards, 3 week incubation, 2500 ppm: 0: Free of fungal growth; 1: Traces of fungal growth; 2: Little fungal growth; 3: Moderate fungal growth; 4: Vigorous to maximum growth (all surfaces covered with fungal growth). The text has this:
Representative compounds of this invention to be tested, were suspended in an aqueous solution containing 7.5% GENAPOL X 080™ (Hoechst-Celanese Corporation), and 20% propylene glycol monomethyl ether, to prepare the test solutions. […]
Deep frozen boards (300×50×10 mm) of freshly felled sapwood of Pinus sylvestrus (mini-boards) were thawed at room temperature. One half of each mini-board was immersed in a test solution for 20 seconds. The mini-boards were then sprayed with mixed spore suspension containing the following fungi:
Sclerophomas entoxylina, and
and stored in incubation boxes at 25° C. and at 100% relative humidity, for three weeks. For each compound tested, each concentration of test solution was applied to five different mini-boards.
The efficacy of the test compounds was determined by comparing the fungal growth on both the treated and untreated parts of the mini-boards.
The degree of infection was scored according to the following scale:
1=Traces of fungal growth
4=Vigorous to maximum growth (all surfaces covered with fungal growth)

Turning to `[O-][S+]1CCON=C1c1cc(Br)cs1` (stereo not drawn) [Compound 41], in assay [1] (0.15% a.i. in paint), the “Surface score of wooden sticks treated with paint formulation, A. pullulans” value (“Surface score … A. pullulans” for short) is recorded as 0; the “Surface score of wooden sticks treated with paint formulation, A. versicolor” value (shortened to “Surface score … A. versicolor”) was 0; the “Surface score of wooden sticks treated with paint formulation, C. cladosporioides” value (“Surface score … C. cladosporioides” for short) was found to be 0; the “Surface score of wooden sticks treated with paint formulation, P. purpurogenum” value (“Surface score … P. purpurogenum” for short) is 2 (Growth covering between 1 and 10% of the inoculated test area). Also, in assay [1] (0.15% a.i. in paint), the “Surface score of wooden sticks treated with paint formulation, P. violacea” value (from here on “Surface score … P. violacea”) is 4 (Growth covering between 30 and 70% of the inoculated test area); the “Surface score of wooden sticks treated with paint formulation, R rubra (y)” value (from here on “Surface score of wooden sticks treated … (y)”) was 3 (Growth covering between 10 and 30% of the inoculated test area); the “Surface score of wooden sticks treated with paint formulation, S. chartarum” value (“Surface score … S. chartarum” below) was 4 (Growth covering between 30 and 70% of the inoculated test area); the “Surface score of wooden sticks treated with paint formulation, U. atrum” value (from here on “Surface score … U. atrum”) is 3 (Growth covering between 10 and 30% of the inoculated test area). In assay [1] (0.3% a.i. in paint), the “Surface score … A. pullulans” value came to 0; the “Surface score … A. versicolor” value is recorded as 0; the “Surface score … C. cladosporioides” value was found to be 0; the “Surface score … P. purpurogenum” value was 1 (Trace of growth of up to 1% coverage of the test inoculated area). In addition, in assay [1] (0.3% a.i. in paint), the “Surface score … P. violacea” value is 3 (Growth covering between 10 and 30% of the inoculated test area); the “Surface score of wooden sticks treated … (y)” value was found to be 0; the “Surface score … S. chartarum” value is on record as 0; the “Surface score … U. atrum” value is listed as 1 (Trace of growth of up to 1% coverage of the test inoculated area). Moreover, in assay [2] (0.15% in water-based paint), the “Surface score in a paint formulation in a mold cabinet test, 6 weeks” value (shortened to “Surface score in a paint formulation … 6 weeks”) came out at 0 and the “Surface score in a paint formulation in a mold cabinet test, 12 weeks” value (shortened to “Surface score in a paint formulation … 12 weeks”) is given as 2.0. For the same compound, in assay [2] (0.3% in water-based paint), the “Surface score in a paint formulation … 6 weeks” value is given as 0.5 and the “Surface score in a paint formulation … 12 weeks” value was found to be 3.0. Moreover, in assay [3], the “Surface score of treated mini-boards, 3 week incubation, 1500 ppm” value (“Surface score … 3 week incubation, 1500 ppm” below) turned out to be 0.6; the “Surface score of treated mini-boards, 6 week incubation, 1500 ppm” value (shortened to “Surface score … 6 week incubation, 1500 ppm”) worked out at 2.4; the “Surface score of treated mini-boards, 3 week incubation, 2500 ppm” value (“Surface score … 3 week incubation, 2500 ppm” for short) is 0.2; the “Surface score of treated mini-boards, 6 week incubation, 2500 ppm” value (“Surface score … 6 week incubation, 2500 ppm” below) stood at 1.6.
As to `O=S1(=O)CCON=C1c1ccc(Br)s1` [Compound 38], in assay [1] (0.15% a.i. in paint), the “Surface score … A. pullulans” value was 2 (Growth covering between 1 and 10% of the inoculated test area); the “Surface score … A. versicolor” value is on record as 1 (Trace of growth of up to 1% coverage of the test inoculated area); the “Surface score … C. cladosporioides” value is 2 (Growth covering between 1 and 10% of the inoculated test area); the “Surface score … P. purpurogenum” value is 3 (Growth covering between 10 and 30% of the inoculated test area). In assay [1] (0.15% a.i. in paint), the “Surface score … P. violacea” value was 4 (Growth covering between 30 and 70% of the inoculated test area); the “Surface score of wooden sticks treated … (y)” value was 3 (Growth covering between 10 and 30% of the inoculated test area); the “Surface score … S. chartarum” value is on record as 5 (Growth covering more than 70t of the inoculated test area); the “Surface score … U. atrum” value was 4 (Growth covering between 30 and 70% of the inoculated test area). For the same compound, in assay [1] (0.3% a.i. in paint), the “Surface score … A. pullulans” value was 0; the “Surface score … A. versicolor” value worked out at 0; the “Surface score … C. cladosporioides” value is on record as 0; the “Surface score … P. purpurogenum” value was 3 (Growth covering between 10 and 30% of the inoculated test area). Moreover, in assay [1] (0.3% a.i. in paint), the “Surface score … P. violacea” value is 4 (Growth covering between 30 and 70% of the inoculated test area); the “Surface score of wooden sticks treated … (y)” value is listed as 0; the “Surface score … S. chartarum” value was 2 (Growth covering between 1 and 10% of the inoculated test area); the “Surface score … U. atrum” value is 3 (Growth covering between 10 and 30% of the inoculated test area). For the same compound, in assay [2] (0.15% in water-based paint), the “Surface score in a paint formulation … 6 weeks” value is listed as 2.5 and the “Surface score in a paint formulation … 12 weeks” value is reported as 4.5. Besides, in assay [2] (0.3% in water-based paint), the “Surface score in a paint formulation … 6 weeks” value is 2.5 and the “Surface score in a paint formulation … 12 weeks” value is 4.0. Moreover, in assay [3], the “Surface score … 3 week incubation, 1500 ppm” value came out at 0.6; the “Surface score … 6 week incubation, 1500 ppm” value is 2.0; the “Surface score … 3 week incubation, 2500 ppm” value was found to be 0.4; the “Surface score … 6 week incubation, 2500 ppm” value turned out to be 2.8.
Consider `[O-][S+]1CCON=C1c1ccc(Br)s1` (stereo not drawn) [Compound 36], for which, in assay [1] (0.15% a.i. in paint), the “Surface score … A. pullulans” value is reported as 0; the “Surface score … A. versicolor” value was found to be 0; the “Surface score … C. cladosporioides” value was found to be 0; the “Surface score … P. purpurogenum” value is recorded as 1 (Trace of growth of up to 1% coverage of the test inoculated area). In addition, in assay [1] (0.15% a.i. in paint), the “Surface score … P. violacea” value was 3 (Growth covering between 10 and 30% of the inoculated test area); the “Surface score of wooden sticks treated … (y)” value is reported as 0; the “Surface score … S. chartarum” value was 0; the “Surface score … U. atrum” value was 3 (Growth covering between 10 and 30% of the inoculated test area). Further, in assay [1] (0.3% a.i. in paint), the “Surface score … A. pullulans” value is given as 0; the “Surface score … A. versicolor” value came to 0; the “Surface score … C. cladosporioides” value was 0; the “Surface score … P. purpurogenum” value was 1 (Trace of growth of up to 1% coverage of the test inoculated area). Further, in assay [1] (0.3% a.i. in paint), the “Surface score … P. violacea” value is 1 (Trace of growth of up to 1% coverage of the test inoculated area); the “Surface score of wooden sticks treated … (y)” value was 0; the “Surface score … S. chartarum” value is reported as 0; the “Surface score … U. atrum” value is 1 (Trace of growth of up to 1% coverage of the test inoculated area). Further, in assay [2] (0.15% in water-based paint), the “Surface score in a paint formulation … 6 weeks” value is listed as 2.5 and the “Surface score in a paint formulation … 12 weeks” value is reported as 4.5. In addition, in assay [2] (0.3% in water-based paint), the “Surface score in a paint formulation … 6 weeks” value stood at 2.5 and the “Surface score in a paint formulation … 12 weeks” value was 4.0. Besides, in assay [3], the “Surface score … 3 week incubation, 1500 ppm” value was found to be 0.2; the “Surface score … 6 week incubation, 1500 ppm” value was 2.6; the “Surface score … 3 week incubation, 2500 ppm” value worked out at 0; the “Surface score … 6 week incubation, 2500 ppm” value was found to be 1.4.
